Measurements as given in patent publication EP0116944B1 (priority 1983, dated 1984).
Where two headings read alike, the source gives them in different places.

Legend:
[1] = test system: Vasopressin-induzierten Koronarspasmen; set-up: species or system Ratten; conditions: in vivo; for Dauer der antianginösen Wirkung gegenüber Vasopressin: po
in vivo = conditions: dog, iv
Hypotensivum = conditions: orale Verabreichung; cited from earlier work
[2] = test system: Blutdruck anästhesierter Ratten; conditions: in vivo
hypotensive Wirkung = conditions: in vivo
[3] = intraduodenal, Ratten; cited from earlier work
systolischen Blutdruck = test system: systolischen Blutdruck; set-up: species or system Hunde; conditions: in vivo
ST-Wellensenkung = conditions: cited from earlier work

O=[N+]([O-])OC(CO)CO [2-GN, Glycerin-2-nitrat]
Dauer der antianginösen Wirkung gegenüber Vasopressin [1]: 2 to 3 h
half-life (in vivo): 2.1 h

O=[N+]([O-])OCC(CO[N+](=O)[O-])O[N+](=O)[O-] [GTN, Glycerintrinitrat]
Wirksamkeit als Hypotensivum (Hypotensivum): inaktiv
Dauer der hypotensiven Wirkung [2]: 14 min
hypotensive Wirkung nach Vorbehandlung mit DHE (hypotensive Wirkung): herabgesetzt
Hemmung der T-Wellenerhöhung / Vasopressin-induzierten Koronarspasmen [1]: entschieden den stärksten Einfluß
Dauer der antianginösen Wirkung gegenüber Vasopressin [1]: 2 to 3 h
Zeit, nach der kein weiterer Plasmawert der Ausgangssubstanz gemessen werden konnte [3]: ≤ 5 min
Beginn der Wirkung (systolischen Blutdruck): 0,4 min
Einfluß auf den systolischen Blutdruck (systolischen Blutdruck): senkten
Hemmung der ST-Wellensenkung (ST-Wellensenkung; in vivo): hemmte

OCCN(CCO)c1nc(N2CCCCC2)c2nc(N(CCO)CCO)nc(N3CCCCC3)c2n1 [Dipyridamol]
Hemmung der ST-Wellensenkung (ST-Wellensenkung; in vivo): unwirksam

O=[N+]([O-])O[C@H]1CO[C@H]2[C@@H]1OC[C@H]2O[N+](=O)[O-] [ISDN, Isosorbid-dinitrat]
Hemmung der ST-Wellensenkung (ST-Wellensenkung; oral, Ratten): hemmten
